# According to US8519163B2, “Anti-tumor activity of AECHL-1, novel triterpenoid isolated from Ailanthus excelsa in vitro and in vivo” (National Centre for Cell Science, priority 2008, dated 2013):
# Tests used:
# B16F10 melanoma cells = experiment: In vivo allograft tumor model; parameters: species or system C57B1/6 mice
# Protocol: (§1) The data reported for tumor volumes are expressed as mean±SEM. Statistical differences were determined by ANOVA and post test applied was Tukey-Kramer multiple comparison Test. For Tumor to body weight ratio post test applied was Dunnett multiple comparisons test.
# p53 = experiment: Western blot of tumor homogenates of C57B1/6 mice; format: in vivo, mouse; settings: tumor of C57 mice, 100 μg, compared with control
# Protocol: (§2) Prior to immunoblot analysis, tumor segments stored at −80° C. were thawed, washed, minced and homogenized in lysis buffer (120 mM NaCl, 1.0% Triton X 100, 20 mM Tris-HCl, pH 7.5, 10% glycerol, 2 mM EDTA, Protease inhibitor cocktail, Roche) using a Polytron homogenization device. Lysates were incubated at 4° C. for 30 min and centrifuged at 14000 r.p.m. in an Eppendorf micro centrifuge for 15 min. Proteins were isolated in solublised form. Protein concentrations were measured by Bradford assay (Bio-Rad protein assay kit) and stored at −80° C. For immunobloting, 60 μg of total protein from the tumor lysates were used Proteins were resolved in a 10% SDS-polyacrylamide gel, transferred to the immobilon-P […] membrane and blocked with 5% (wt/v) non fat dry milk powder (Sigma) in TBST buffer (10 mM Tris pH 7.6, 150 mM NaCl and 0.1% Tween-20) for three hours at room temperature and then incubated with primary antibodies p53, pp53, p21, Cyclin D1, CDK4 and c-Myc in TBST for 3 h and with actin for 1 hour at room temperature. The membrane was incubated further with the secondary antibody HRP-conjugated (BD Bioscience) at 1:10000 dilution for 1 h at room temperature. Following each antibody incubation, the membrane was washed thoroughly with TBST buffer 3 times. The protein bands were visualized using the enhanced chemiluminescence substrate reaction (Pierce) according to the manufacturer's instructions using X-OMAT AR5 film (Kodak)
# pp53 = experiment: Western blot of tumor homogenates of C57B1/6 mice; format: in vivo, mouse; settings: tumor of C57 mice, 100 μg
# Protocol: as §2
# p21 = experiment: Western blot of tumor homogenates of C57B1/6 mice; format: in vivo, mouse; settings: tumor of C57 mice, 100 μg
# Protocol: as §2
# MCF-7 = experiment: In vivo xenograft tumor model; parameters: species or system athymic nude mice
# Protocol: as §1
# MCF-7 cells = experiment: Cell cycle analysis by flow cytometry; format: cell-based, human; settings: 24 h
# Protocol: The cell cycle analysis of MCF-7, B16F10 MDA-MB-231 and PC3 cells was done by flow cytometry. […] Cells were harvested with trypsin (0.05%), 0.02% EDTA, 0.05% glucose and a single-cell suspension was prepared. Cells were washed and were pelleted by centrifugation (1000×g for 2 min) and fixed in 70% ethanol while vortexing and stored at 4° C. for 1 hour. Fixed cells were pelleted by centrifugation, to remove ethanol and washed with PBS. Cells were re-suspended in PBS containing 50 μg/ml propidium iodide, 0.1 g/L RNase and 1% BSA, incubated for 30 min at 37° C. in the dark, and analyzed with flow cytometry (FACS Vantage-BD Sciences, USA) equipped with an argon laser at 488 nm. The data was analyzed using Cell Quest software for determining the percent population in different phases of cell cycle.
# [1] = system: cellular microtubule network; experiment: Immunocytochemistry, microtubule network in MCF-7 cells; format: cell-based, human; settings: paclitaxel 1-20 μM, AECHL-1 2-40 μM, 24 h, confocal microscopy
# Protocol: Immunocytochemistry was performed as described previously. […] Cells were incubated with primary anti-p53 antibodies (1:100; Abcam) and anti-α-tubulin antibodies (1:10000; Sigma chemical Co.) for 1 hour at room temperature. After washing with PBS, cells were incubated with CY2-conjugated secondary antibodies (1:200; Chemicon, Germany) and Alexa-conjugated secondary antibodies (1:10000; Sigma, St. Louis, Mo.) for 45 minutes and nuclear staining was done with DAPI. Images were captured under confocal microscope.
# The tumor suppressor p53 plays a critical role in preventing human cancer formation. It translocates into the nucleus and works as a transcription factor by upregulating cell cycle regulatory proteins and induces cell cycle arrest and/or programmed cell death (apoptosis) (11). […] After 24 h of incubation, the p53 translocation in the nucleus (green fluorescence) and microtubule network (red fluorescence) was visualized by confocal microscopy.
smiles,measurement,setting,value
"N.N.[Cl][Pt][Cl] [Cisplatin, reference compound]",tumor size reduced by,"B16F10 melanoma cells; B16F10 allograft, 100 μg intra-tumor for 12 days, day 18",93.13±0.539%
same,tumor volume on day 24,"B16F10 melanoma cells; B16F10 allograft, 100 μg, day 24",decreased
same,histological examination of tumor tissue,"B16F10 melanoma cells; C57 mice, 100 μg",significant increase in necrotic nuclei with decreased tumor cell density
same,p53 protein expression,p53,increasing expression
same,phosphorylation of p53 (pp53),pp53,did not show any change
same,expression of p21,p21,increased p21 expression
"CC(=O)O[C@H]1C(=O)[C@@]2(C)[C@H]([C@H](OC(=O)c3ccccc3)[C@]3(O)C[C@H](OC(=O)[C@H](O)[C@@H](NC(=O)c4ccccc4)c4ccccc4)C(C)=C1C3(C)C)[C@]1(OC(C)=O)CO[C@@H]1C[C@@H]2O [Paclitaxel, reference compound]",tumor size reduced by,"MCF-7; MCF-7 xenograft, 20 μg/0.05 ml intra-tumor for 10 days",14.19±0.32%
same,histological examination of tumor tissue,"MCF-7; nude mice, 20 μg",lowered the tumor cell density
same,Phase of cell cycle (% of cells) G2/M,"MCF-7 cells; MCF-7, 1 μM",72.55%
same,Phase of cell cycle (% of cells) S,"MCF-7 cells; MCF-7, 1 μM",18.65%
same,Phase of cell cycle (% of cells) Sub G0,"MCF-7 cells; MCF-7, 1 μM",3.45%
same,Phase of cell cycle (% of cells) G1,"MCF-7 cells; MCF-7, 2 μM",7.41%
same,Phase of cell cycle (% of cells) G2/M,"MCF-7 cells; MCF-7, 2 μM",63.71%
same,Phase of cell cycle (% of cells) S,"MCF-7 cells; MCF-7, 2 μM",22.89%
same,Phase of cell cycle (% of cells) Sub G0,"MCF-7 cells; MCF-7, 2 μM",5.21%
same,Phase of cell cycle (% of cells) G2/M,"MCF-7 cells; MCF-7, 5 μM",72.86%
same,Phase of cell cycle (% of cells) S,"MCF-7 cells; MCF-7, 5 μM",18.35%
same,Phase of cell cycle (% of cells) Sub G0,"MCF-7 cells; MCF-7, 5 μM",3.98%
same,Phase of cell cycle (% of cells) G2/M,"MCF-7 cells; MCF-7, 10 μM",69.36%
same,Phase of cell cycle (% of cells) S,"MCF-7 cells; MCF-7, 10 μM",18.96%
same,Phase of cell cycle (% of cells) Sub G0,"MCF-7 cells; MCF-7, 10 μM",3.47%
same,effect on microtubule network,[1],microtubule polymerization with an increase in the density of cellular microtubules
